According to the Kinase Knowledgebase extract (Sharma et al. 2016):

Target: CDK2 (UniProt P24941)
Assay: Enzyme Assay

IC50 [nM] | SMILES
< 1000 | CCOc1ccc(CC(=O)Nc2n[nH]c3ccc(N4CCCS4(=O)=O)cc23)cc1S(=O)(=O)N1CCN(C)CC1
< 50 | CS(=O)(=O)c1ccc(CC(=O)Nc2n[nH]c3ccc(N4CCCS4(=O)=O)cc23)cc1
< 10000 | CC(=O)Nc1nc(CC(=O)Nc2n[nH]c3ccc(N4CCCS4(=O)=O)cc23)cs1
< 50 | O=C(Cc1ccc(F)cc1)Nc1n[nH]c2ccc(N3CCCS3(=O)=O)cc12
< 50 | O=C(Cc1ccc(-c2ccsc2)cc1)Nc1n[nH]c2ccc(N3CCCS3(=O)=O)cc12
< 50 | O=C(Cc1ccc(-c2ccco2)cc1)Nc1n[nH]c2ccc(N3CCCS3(=O)=O)cc12
< 10000 | CN1CCN(CC(=O)Nc2n[nH]c3ccc(N4CCCS4(=O)=O)cc23)CC1
< 10000 | O=S1(=O)CCCN1c1ccc2[nH]nc(NC(=S)Cc3ccccc3)c2c1
< 10000 | O=S1(=O)CCCN1c1ccc2[nH]nc(NC(Cc3ccccc3)=NO)c2c1
< 500 | CCNc1nc(CC(=O)Nc2n[nH]c3ccc(N4CCCS4(=O)=O)cc23)cs1
< 100 | O=C(Cc1ccc(CN2CCOCC2)cc1)Nc1n[nH]c2ccc(N3CCCS3(=O)=O)cc12
< 50 | O=C(Cc1ccc2ccccc2c1)Nc1n[nH]c2ccc(N3CCCS3(=O)=O)cc12
< 100000 | O=C(Nc1n[nH]c2ccc(N3CCCS3(=O)=O)cc12)C1(c2ccccc2)CCCC1
< 50 | CCOc1ccc(CC(=O)Nc2n[nH]c3ccc(N4CCCS4(=O)=O)cc23)cc1
< 50 | O=C(Cc1ccc(-c2ccncc2)cc1)Nc1n[nH]c2ccc(N3CCCS3(=O)=O)cc12
< 100 | O=C(Cc1ccc(Oc2ccccc2)cc1)Nc1n[nH]c2ccc(N3CCCS3(=O)=O)cc12
< 1000 | O=C(CN1CCc2ccccc2C1)Nc1n[nH]c2ccc(N3CCCS3(=O)=O)cc12
< 10000 | COc1ccc(N2CCN(CC(=O)Nc3n[nH]c4ccc(N5CCCS5(=O)=O)cc34)CC2)cc1
< 100000 | CC(=NO)Nc1n[nH]c2ccc(N3CCCS3(=O)=O)cc12
< 100 | CC(C)(C)OC(=O)Nc1nc(CC(=O)Nc2n[nH]c3ccc(N4CCCS4(=O)=O)cc23)cs1
< 50 | O=C(Cc1cccc(Br)c1)Nc1n[nH]c2ccc(N3CCCS3(=O)=O)cc12
< 10000 | O=C(Cc1csc(NCc2ccc(OCc3ccccc3)cc2)n1)Nc1n[nH]c2ccc(N3CCCS3(=O)=O)cc12
< 100 | O=C(Cc1ccc(N2CCOCC2)cc1)Nc1n[nH]c2ccc(N3CCCS3(=O)=O)cc12
< 1000 | O=C(Cc1ccc(Cn2ccnc2)cc1)Nc1n[nH]c2ccc(N3CCCS3(=O)=O)cc12
< 50 | O=C(Cc1ccc(Br)cc1)Nc1n[nH]c2ccc(N3CCCS3(=O)=O)cc12
< 50 | Cc1ccc(CC(=O)Nc2n[nH]c3ccc(N4CCCS4(=O)=O)cc23)cc1

IC50 [nM] | SMILES
< 50 | O=C(Cc1cccc([N+](=O)[O-])c1)Nc1n[nH]c2ccc(N3CCCS3(=O)=O)cc12
< 50 | O=C(Cc1ccc([N+](=O)[O-])cc1)Nc1n[nH]c2ccc(N3CCCS3(=O)=O)cc12
< 500 | Nc1nc(CC(=O)Nc2n[nH]c3ccc(N4CCCS4(=O)=O)cc23)cs1
< 1000 | O=C(CCc1ccccc1)Nc1n[nH]c2ccc(N3CCCS3(=O)=O)cc12
< 100 | CCOc1ccc(CC(=O)Nc2n[nH]c3ccc(N4CCCS4(=O)=O)cc23)cc1Cl
< 100 | NCCOc1ccc(CC(=O)Nc2n[nH]c3ccc(N4CCCS4(=O)=O)cc23)cc1
< 100 | CCOCCOCCOc1ccc(CC(=O)Nc2n[nH]c3ccc(N4CCCS4(=O)=O)cc23)cc1
< 50 | O=C(Cn1cnc(-c2ccccc2)c1)Nc1n[nH]c2ccc(N3CCCS3(=O)=O)cc12
> 100000 | CC(=O)Nc1n[nH]c2ccc(N3CCCS3(=O)=O)cc12
< 1000 | CCOc1ccc(CC(=O)Nc2n[nH]c3ccc(N4CCCS4(=O)=O)cc23)cc1S(N)(=O)=O
< 50 | O=C(Cc1cccc2ccccc12)Nc1n[nH]c2ccc(N3CCCS3(=O)=O)cc12
< 100 | O=C(Cc1ccc(OCc2ccccc2)cc1)Nc1n[nH]c2ccc(N3CCCS3(=O)=O)cc12
< 50 | O=C(Cc1ccccc1)Nc1n[nH]c2ccc(N3CCCS3(=O)=O)cc12
< 50 | CCN(CC)c1ccc(CC(=O)Nc2n[nH]c3ccc(N4CCCS4(=O)=O)cc23)cc1
< 500 | CCN(CC)c1cccc(CC(=O)Nc2n[nH]c3ccc(N4CCCS4(=O)=O)cc23)c1
< 10000 | O=C(CN1CCOCC1)Nc1n[nH]c2ccc(N3CCCS3(=O)=O)cc12
< 1000 | CCOc1ccc(CC(=O)Nc2n[nH]c3ccc(N4CCCS4(=O)=O)cc23)cc1S(=O)(=O)N1CCOCC1
< 10000 | CCOc1ccccc1N1CCN(CC(=O)Nc2n[nH]c3ccc(N4CCCS4(=O)=O)cc23)CC1
< 100 | Cc1ccccc1CC(=O)Nc1n[nH]c2ccc(N3CCCS3(=O)=O)cc12
< 50 | COc1cc(CC(=O)Nc2n[nH]c3ccc(N4CCCS4(=O)=O)cc23)cc(OC)c1
< 100 | COCCOCCOCCOc1ccc(CC(=O)Nc2n[nH]c3ccc(N4CCCS4(=O)=O)cc23)cc1
< 50 | CNc1ccc(CC(=O)Nc2n[nH]c3ccc(N4CCCS4(=O)=O)cc23)cc1
< 10000 | O=C(CN1CCCCC1)Nc1n[nH]c2ccc(N3CCCS3(=O)=O)cc12
< 100 | O=C(Cn1cnc(-c2ccc(Br)cc2)c1)Nc1n[nH]c2ccc(N3CCCS3(=O)=O)cc12
< 500 | CCNc1cccc(CC(=O)Nc2n[nH]c3ccc(N4CCCS4(=O)=O)cc23)c1
< 50 | O=C(Cc1ccc2c(c1)OCO2)Nc1n[nH]c2ccc(N3CCCS3(=O)=O)cc12

IC50 [nM] | SMILES
< 500 | O=C(CN1CCN(c2ccccc2)CC1)Nc1n[nH]c2ccc(N3CCCS3(=O)=O)cc12
< 100 | O=C(Cc1ccc(S(=O)(=O)N2CCOCC2)cc1)Nc1n[nH]c2ccc(N3CCCS3(=O)=O)cc12
< 500 | O=C(Cn1cnc(-c2ccc(-c3ccccc3)cc2)c1)Nc1n[nH]c2ccc(N3CCCS3(=O)=O)cc12
< 1000 | CN1CCN(S(=O)(=O)c2ccc(CC(=O)Nc3n[nH]c4ccc(N5CCCS5(=O)=O)cc34)cc2)CC1
< 50 | O=C(Cn1cnc(-c2ccc3ccccc3c2)c1)Nc1n[nH]c2ccc(N3CCCS3(=O)=O)cc12
< 100 | CN1CCN(Cc2ccc(CC(=O)Nc3n[nH]c4ccc(N5CCCS5(=O)=O)cc34)cc2)CC1
< 50000 | CC(=S)Nc1n[nH]c2ccc(N3CCCS3(=O)=O)cc12
< 50 | Nc1ccc(CC(=O)Nc2n[nH]c3ccc(N4CCCS4(=O)=O)cc23)cc1
< 50 | CCOc1ccc(CC(=O)Nc2n[nH]c3ccc(N4CCCS4(=O)=O)cc23)cc1[N+](=O)[O-]
< 50 | O=C(Cn1cnc2ccccc21)Nc1n[nH]c2ccc(N3CCCS3(=O)=O)cc12
< 50 | O=C(Cc1cccc(Cl)c1)Nc1n[nH]c2ccc(N3CCCS3(=O)=O)cc12
< 100000 | O=C(Nc1n[nH]c2ccc(N3CCCS3(=O)=O)cc12)C(c1ccccc1)C1CCCC1 (stereo not given)
< 500 | O=C(Cc1ccc(N(Cc2ccccc2)Cc2ccccc2)cc1)Nc1n[nH]c2ccc(N3CCCS3(=O)=O)cc12
< 10000 | CC(=O)c1ccc(N2CCN(CC(=O)Nc3n[nH]c4ccc(N5CCCS5(=O)=O)cc34)CC2)cc1
< 50 | CCOc1cccc(CC(=O)Nc2n[nH]c3ccc(N4CCCS4(=O)=O)cc23)c1
< 50 | O=C(Cc1ccc(Cl)cc1)Nc1n[nH]c2ccc(N3CCCS3(=O)=O)cc12
< 50 | CC(C)c1ccc(CC(=O)Nc2n[nH]c3ccc(N4CCCS4(=O)=O)cc23)cc1
< 50 | CSc1ccc(CC(=O)Nc2n[nH]c3ccc(N4CCCS4(=O)=O)cc23)cc1
< 500 | CCN(CC)c1nc(CC(=O)Nc2n[nH]c3ccc(N4CCCS4(=O)=O)cc23)cs1
< 100 | COc1ccc(CC(=O)Nc2n[nH]c3ccc(N4CCCS4(=O)=O)cc23)cc1
< 50 | Nc1cccc(CC(=O)Nc2n[nH]c3ccc(N4CCCS4(=O)=O)cc23)c1
< 50 | O=C(Cc1ccc(O)cc1)Nc1n[nH]c2ccc(N3CCCS3(=O)=O)cc12
< 50 | O=C(Cc1ccc(Cl)c(Cl)c1)Nc1n[nH]c2ccc(N3CCCS3(=O)=O)cc12
< 10000 | O=C(CN1CCN(c2ccc(Cl)cc2)CC1)Nc1n[nH]c2ccc(N3CCCS3(=O)=O)cc12
< 100000 | CCC(C(=O)Nc1n[nH]c2ccc(N3CCCS3(=O)=O)cc12)c1ccccc1 (stereo not given)
< 50 | CCNc1ccc(CC(=O)Nc2n[nH]c3ccc(N4CCCS4(=O)=O)cc23)cc1

SMILES | IC50 [nM]
O=C(Cc1ccc(-c2ccccc2)cc1)Nc1n[nH]c2ccc(N3CCCS3(=O)=O)cc12 | < 50
Cc1cccc(CC(=O)Nc2n[nH]c3ccc(N4CCCS4(=O)=O)cc23)c1 | < 50
